Reference: ChEMBL document CHEMBL1141154, “Indolin-2-ones with high in vivo efficacy in a model for multiple sclerosis” (J Med Chem, 2005)
pIC50: −log10 of the molar value.

Assays:
Mus musculus [1] = experiment: In vivo percent inhibition of multiple sclerosis (MS) by the compound upon intraperitoneal administration at a dose of 50 mg/kg on EAE model (mice immunized for EAE induction and assessed clinically for 21 days); type: functional; conditions: ip, 504 h
PBMC = experiment: In vitro inhibitory concentration on the production of pro-inflammatory cytokine IL-2 in PBMC (Peripheral blood mononuclear cells) determined by IL-2 PBMC assay; type: functional, cell-based; conditions: Homo sapiens
[2] = molecular target: Vascular endothelial growth factor receptor 2 (Homo sapiens, UniProt P35968); experiment: In vitro inhibition of KDR
Mus musculus [3] = experiment: In vivo percent inhibition of multiple sclerosis (MS) by the compound upon oral administration at a dose of 50 mg/kg on EAE model (mice immunized for EAE induction and assessed clinically for 21 days); type: functional; conditions: 504 h
Mus musculus [4] = experiment: In vivo percent inhibition of multiple sclerosis (MS) by the compound upon intraperitoneal administration at a dose of 50 mg/kg on EAE model (mice immunized for EAE induction and assessed clinically for 21 days); non significant effect; type: functional; conditions: ip, 504 h

Vascular endothelial growth factor receptor 2, sequence (P35968 whole entry): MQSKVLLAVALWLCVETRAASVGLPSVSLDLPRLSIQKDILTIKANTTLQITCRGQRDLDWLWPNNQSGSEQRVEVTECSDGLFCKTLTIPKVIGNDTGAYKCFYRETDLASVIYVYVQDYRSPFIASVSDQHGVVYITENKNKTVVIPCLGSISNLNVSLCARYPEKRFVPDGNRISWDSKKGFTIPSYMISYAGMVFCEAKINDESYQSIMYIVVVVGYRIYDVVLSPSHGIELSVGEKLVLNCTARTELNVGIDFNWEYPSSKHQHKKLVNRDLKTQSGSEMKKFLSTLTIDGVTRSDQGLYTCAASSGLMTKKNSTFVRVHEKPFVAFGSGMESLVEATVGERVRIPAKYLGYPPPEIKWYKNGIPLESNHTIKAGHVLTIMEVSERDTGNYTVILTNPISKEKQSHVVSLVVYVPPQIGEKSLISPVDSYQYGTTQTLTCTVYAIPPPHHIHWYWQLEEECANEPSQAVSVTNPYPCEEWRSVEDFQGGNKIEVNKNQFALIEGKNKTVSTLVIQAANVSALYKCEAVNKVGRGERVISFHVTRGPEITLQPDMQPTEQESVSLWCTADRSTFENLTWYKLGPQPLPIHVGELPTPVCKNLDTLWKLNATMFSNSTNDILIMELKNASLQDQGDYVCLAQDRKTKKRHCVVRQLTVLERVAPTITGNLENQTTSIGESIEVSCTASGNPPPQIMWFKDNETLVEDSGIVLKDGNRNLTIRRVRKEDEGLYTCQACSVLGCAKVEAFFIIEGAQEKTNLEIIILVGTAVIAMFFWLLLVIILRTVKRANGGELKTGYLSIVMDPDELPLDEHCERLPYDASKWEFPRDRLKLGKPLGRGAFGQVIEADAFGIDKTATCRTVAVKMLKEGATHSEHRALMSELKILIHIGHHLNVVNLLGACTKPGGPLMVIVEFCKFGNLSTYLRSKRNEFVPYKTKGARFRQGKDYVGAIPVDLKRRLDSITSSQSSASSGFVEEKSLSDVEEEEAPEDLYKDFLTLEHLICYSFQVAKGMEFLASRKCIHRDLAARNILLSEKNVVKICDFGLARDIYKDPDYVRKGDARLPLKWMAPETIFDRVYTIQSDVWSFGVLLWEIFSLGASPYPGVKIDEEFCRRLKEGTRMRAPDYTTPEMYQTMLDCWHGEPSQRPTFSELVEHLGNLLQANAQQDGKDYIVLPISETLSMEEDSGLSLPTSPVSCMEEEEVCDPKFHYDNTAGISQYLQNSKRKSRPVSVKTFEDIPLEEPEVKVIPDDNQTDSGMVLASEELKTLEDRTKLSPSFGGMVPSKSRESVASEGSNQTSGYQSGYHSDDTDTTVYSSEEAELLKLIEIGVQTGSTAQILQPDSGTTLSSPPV

| SMILES | inhibition in vivo at 50 mg/kg (Mus musculus [1]) [%] | pIC50 (PBMC) | pIC50 [2] | inhibition in vivo at 50 mg/kg (Mus musculus [3]) [%] | inhibition in vivo at 50 mg/kg (Mus musculus [4]) [%] |
| --- | --- | --- | --- | --- | --- |
| CCOC(=O)c1cc(C)c(/C=C2\C(=O)Nc3ccccc32)[nH]1 | -44 | 7.85 | 5.10 | – | – |
| O=C1Nc2ccccc2/C1=C/c1c[nH]c2ccccc12 | 84 | 8.10 | – | 32 | – |
| Cc1[nH]c(/C=C2\C(=O)Nc3ccccc32)c(C)c1Br | -78 | 8.52 | 6.49 | – | – |
| Cc1cc(C)c(/C=C2\C(=O)N(O)c3ccccc32)[nH]1 | -67 | 7.74 | 6.30 | – | – |
| CC(=O)ON1C(=O)/C(=C\c2[nH]c(C)cc2C)c2ccccc21 | -48 | 7.96 | 6.40 | – | – |
| COc1ccc(OC)c(/C=C2/C(=O)Nc3ccccc32)c1 | -90 | 7.68 | – | -49 | – |
| Cc1cc(CO)[nH]c1/C=C1\C(=O)Nc2ccccc21 | -57 | 7.30 | 6.49 | – | – |
| Cc1cc(C(=O)NCCO)[nH]c1/C=C1\C(=O)Nc2ccccc21 | -41 | 7.52 | < 5.00 | – | – |
| Cc1cc(C)c(/C=C2\C(=O)N(CN3CCN(C)CC3)c3ccccc32)[nH]1 | – | – | – | -56 | – |
| Cc1[nH]c(/C=C2\C(=O)Nc3ccccc32)c(C)c1Cl | -96 | 8.40 | 6.00 | – | – |
| Cc1cc(C(=O)O)[nH]c1/C=C1\C(=O)Nc2ccccc21 | – | < 6.00 | < 5.00 | – | -23 |
| Cc1cc(C)c(/C=C2\C(=O)Nc3ccc(O)cc32)[nH]1 | – | 6.00 | 7.00 | – | -12 |
| O=C1Nc2ccccc2/C1=C/c1ccc[nH]1 | – | – | – | – | -9 |
| Cc1cc(C)c(/C=C2\C(=O)Nc3ccccc32)[nH]1 [SEMAXANIB] | -98 | – | – | – | – |
| Clc1ccc(Nc2nnc(Cc3ccncc3)c3ccccc23)cc1 [VATALANIB] | – | < 6.00 | – | – | – |
